The target of experiment [1] is Dual specificity testis-specific protein kinase 1 (Homo sapiens) (UniProt Q15569). The conditions noted are these: at 10 µM.
Experiment [2] has as its target Serine/threonine-protein kinase 16 (Homo sapiens, UniProt O75716). Put plainly: Selectivity interaction (Ambit KINOMEscan and KiNATiv profiling in Jurkat cells) EUB0000090b STK16. It counts as cell-based. The conditions noted are these: at 1 µM.
Experiment [3] concerns the target T1, Serine/threonine-protein kinase D3 (Homo sapiens) (UniProt O94806).
T1 sequence (whole entry): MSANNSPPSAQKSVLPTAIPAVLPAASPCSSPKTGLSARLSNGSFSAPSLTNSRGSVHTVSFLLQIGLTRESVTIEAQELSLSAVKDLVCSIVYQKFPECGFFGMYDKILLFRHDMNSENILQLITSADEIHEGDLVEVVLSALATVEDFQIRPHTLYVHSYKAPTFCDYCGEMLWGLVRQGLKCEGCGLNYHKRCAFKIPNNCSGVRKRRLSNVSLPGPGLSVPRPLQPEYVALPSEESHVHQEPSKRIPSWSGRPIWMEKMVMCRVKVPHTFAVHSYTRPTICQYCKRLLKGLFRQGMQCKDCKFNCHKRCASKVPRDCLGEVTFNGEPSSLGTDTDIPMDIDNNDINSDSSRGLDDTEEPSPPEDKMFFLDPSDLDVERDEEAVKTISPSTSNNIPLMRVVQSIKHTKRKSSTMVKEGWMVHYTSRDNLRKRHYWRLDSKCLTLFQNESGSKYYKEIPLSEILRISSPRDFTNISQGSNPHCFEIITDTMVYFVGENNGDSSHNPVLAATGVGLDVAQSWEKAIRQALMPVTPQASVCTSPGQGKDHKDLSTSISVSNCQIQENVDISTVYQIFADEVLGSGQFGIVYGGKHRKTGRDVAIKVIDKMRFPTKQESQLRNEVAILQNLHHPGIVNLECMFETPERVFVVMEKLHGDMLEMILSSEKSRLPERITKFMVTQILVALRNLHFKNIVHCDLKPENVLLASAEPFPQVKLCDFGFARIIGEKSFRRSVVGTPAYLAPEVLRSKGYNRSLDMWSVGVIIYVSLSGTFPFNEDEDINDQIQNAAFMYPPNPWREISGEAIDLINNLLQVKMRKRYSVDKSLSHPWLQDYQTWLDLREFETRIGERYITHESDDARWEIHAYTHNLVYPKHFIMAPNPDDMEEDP
Put plainly: Selectivity interaction (KinomeScan (DiscoverX)) EUB0001049a PRKD3. As to conditions: at 1 µM.

Experiment [4] deals with Phosphorylase b kinase gamma catalytic chain, skeletal muscle/heart isoform (Homo sapiens) (UniProt Q16816). Nature of the experiment: Selectivity interaction (KinomeScan (DiscoverX)) EUB0000695a PHKG1. The conditions noted are these: at 100 nM.
Experiment [5] addresses Mitogen-activated protein kinase kinase kinase kinase 1 (Homo sapiens) (UniProt Q92918). Put plainly: Selectivity interaction (KinomeScan (DiscoverX)) EUB0000045b MAP4K1.
For experiment [6], the target named is T2, Myotonin-protein kinase (Homo sapiens) (UniProt Q09013).
T2 sequence (whole entry): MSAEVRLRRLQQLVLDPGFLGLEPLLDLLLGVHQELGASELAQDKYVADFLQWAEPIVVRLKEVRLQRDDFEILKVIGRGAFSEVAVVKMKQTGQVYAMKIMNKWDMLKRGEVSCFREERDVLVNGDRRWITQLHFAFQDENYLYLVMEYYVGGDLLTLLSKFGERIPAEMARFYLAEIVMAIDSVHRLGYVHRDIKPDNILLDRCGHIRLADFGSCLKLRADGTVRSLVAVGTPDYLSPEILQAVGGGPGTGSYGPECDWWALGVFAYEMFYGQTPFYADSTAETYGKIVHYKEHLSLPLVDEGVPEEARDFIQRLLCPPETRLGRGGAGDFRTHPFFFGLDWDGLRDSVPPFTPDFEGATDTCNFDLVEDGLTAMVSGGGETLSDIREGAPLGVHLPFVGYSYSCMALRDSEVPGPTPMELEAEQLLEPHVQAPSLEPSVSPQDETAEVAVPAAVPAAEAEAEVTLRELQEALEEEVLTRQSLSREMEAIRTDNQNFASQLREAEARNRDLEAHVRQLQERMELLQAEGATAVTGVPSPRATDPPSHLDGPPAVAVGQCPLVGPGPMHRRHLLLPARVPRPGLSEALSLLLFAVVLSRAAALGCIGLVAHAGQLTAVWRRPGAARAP
Nature of the experiment: Selectivity interaction (KinomeScan (DiscoverX)) EUB0001619a DMPK. The conditions noted are these: at 1 µM.

In experiment [7] the test system is Phosphatidylinositol 4,5-bisphosphate 3-kinase catalytic subunit alpha isoform (Homo sapiens), P42336 [C420R]. Nature of the experiment: (§1) Selectivity interaction (KinomeScan (DiscoverX)) EUB0001619a PIK3CA. As to conditions: at 1 µM.
The subject of experiment [8] is Phosphatidylinositol 4,5-bisphosphate 3-kinase catalytic subunit alpha isoform (Homo sapiens), P42336 [E545A]. The description is as §1. As to conditions: at 1 µM.
Experiment [9] has as its system Phosphatidylinositol 4,5-bisphosphate 3-kinase catalytic subunit alpha isoform (Homo sapiens), P42336 [H1047L]. Described as §1. The conditions noted are these: at 1 µM.
Experiment [10] deals with Phosphatidylinositol 4,5-bisphosphate 3-kinase catalytic subunit alpha isoform (Homo sapiens) (UniProt P42336). Described as §1. The conditions noted are these: at 1 µM.
In experiment [11] the test system is Phosphatidylinositol 4,5-bisphosphate 3-kinase catalytic subunit alpha isoform (Homo sapiens), P42336 [E545K]. The description is as §1. As to conditions: at 1 µM.
Experiment [12] relates to Phosphatidylinositol 4,5-bisphosphate 3-kinase catalytic subunit alpha isoform (Homo sapiens), P42336 [I800L]. The description is as §1. The conditions noted are these: at 1 µM.
Experiment [13] relates to Phosphatidylinositol 4,5-bisphosphate 3-kinase catalytic subunit alpha isoform (Homo sapiens), P42336 [H1047Y]. Described as §1. As to conditions: at 1 µM.
The subject of experiment [14] is Phosphatidylinositol 4,5-bisphosphate 3-kinase catalytic subunit alpha isoform (Homo sapiens), P42336 [Q546K]. The experiment is described as §1. As to conditions: at 1 µM.
Experiment [15] relates to Phosphatidylinositol 4,5-bisphosphate 3-kinase catalytic subunit alpha isoform (Homo sapiens), P42336 [E542K]. The experiment is described as §1. As to conditions: at 1 µM.
For experiment [16], the system named is Phosphatidylinositol 4,5-bisphosphate 3-kinase catalytic subunit alpha isoform (Homo sapiens), P42336 [M1043I]. The experiment is described as §1. The conditions noted are these: at 1 µM.

This note sets out measurements from ChEMBL document CHEMBL5465560, “Selectivity Literature for EUbOPEN Chemogenomic Library” (2024).

Sequence of Mitogen-activated protein kinase kinase kinase kinase 1 (Homo sapiens) (Q92918 whole entry, looked up): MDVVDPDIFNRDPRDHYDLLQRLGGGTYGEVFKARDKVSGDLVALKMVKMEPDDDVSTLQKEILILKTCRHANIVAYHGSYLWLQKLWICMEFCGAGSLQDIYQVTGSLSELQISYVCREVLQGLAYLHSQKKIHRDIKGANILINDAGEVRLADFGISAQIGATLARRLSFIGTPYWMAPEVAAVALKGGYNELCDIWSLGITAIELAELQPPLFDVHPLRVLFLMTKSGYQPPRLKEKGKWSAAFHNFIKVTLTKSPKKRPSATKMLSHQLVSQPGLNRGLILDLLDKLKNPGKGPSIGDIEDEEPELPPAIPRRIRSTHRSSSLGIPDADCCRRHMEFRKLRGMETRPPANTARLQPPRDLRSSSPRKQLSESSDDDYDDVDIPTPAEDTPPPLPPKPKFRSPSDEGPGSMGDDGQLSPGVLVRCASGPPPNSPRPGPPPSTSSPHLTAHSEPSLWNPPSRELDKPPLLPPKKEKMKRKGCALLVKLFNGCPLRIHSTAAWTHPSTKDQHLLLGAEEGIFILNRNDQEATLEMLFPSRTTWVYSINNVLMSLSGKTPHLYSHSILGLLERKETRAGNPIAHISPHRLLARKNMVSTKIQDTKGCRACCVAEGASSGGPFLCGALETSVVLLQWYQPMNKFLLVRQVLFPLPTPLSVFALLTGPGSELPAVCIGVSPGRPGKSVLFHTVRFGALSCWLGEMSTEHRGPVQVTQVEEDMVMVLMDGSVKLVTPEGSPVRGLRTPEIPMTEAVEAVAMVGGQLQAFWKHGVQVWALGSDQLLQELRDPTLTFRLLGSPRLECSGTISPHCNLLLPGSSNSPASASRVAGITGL
Sequence of Serine/threonine-protein kinase 16 (O75716 whole entry): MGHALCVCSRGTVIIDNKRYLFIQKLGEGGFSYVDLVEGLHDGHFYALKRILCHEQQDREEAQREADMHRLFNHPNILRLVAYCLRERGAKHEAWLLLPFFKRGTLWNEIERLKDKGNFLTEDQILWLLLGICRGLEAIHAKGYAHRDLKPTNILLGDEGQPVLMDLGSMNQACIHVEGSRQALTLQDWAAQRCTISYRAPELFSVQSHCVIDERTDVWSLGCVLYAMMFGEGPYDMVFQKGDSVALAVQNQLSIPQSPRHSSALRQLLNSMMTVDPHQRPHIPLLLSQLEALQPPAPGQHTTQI
Sequence of Phosphatidylinositol 4,5-bisphosphate 3-kinase catalytic subunit alpha isoform (Homo sapiens) (P42336 whole entry, canonical isoform): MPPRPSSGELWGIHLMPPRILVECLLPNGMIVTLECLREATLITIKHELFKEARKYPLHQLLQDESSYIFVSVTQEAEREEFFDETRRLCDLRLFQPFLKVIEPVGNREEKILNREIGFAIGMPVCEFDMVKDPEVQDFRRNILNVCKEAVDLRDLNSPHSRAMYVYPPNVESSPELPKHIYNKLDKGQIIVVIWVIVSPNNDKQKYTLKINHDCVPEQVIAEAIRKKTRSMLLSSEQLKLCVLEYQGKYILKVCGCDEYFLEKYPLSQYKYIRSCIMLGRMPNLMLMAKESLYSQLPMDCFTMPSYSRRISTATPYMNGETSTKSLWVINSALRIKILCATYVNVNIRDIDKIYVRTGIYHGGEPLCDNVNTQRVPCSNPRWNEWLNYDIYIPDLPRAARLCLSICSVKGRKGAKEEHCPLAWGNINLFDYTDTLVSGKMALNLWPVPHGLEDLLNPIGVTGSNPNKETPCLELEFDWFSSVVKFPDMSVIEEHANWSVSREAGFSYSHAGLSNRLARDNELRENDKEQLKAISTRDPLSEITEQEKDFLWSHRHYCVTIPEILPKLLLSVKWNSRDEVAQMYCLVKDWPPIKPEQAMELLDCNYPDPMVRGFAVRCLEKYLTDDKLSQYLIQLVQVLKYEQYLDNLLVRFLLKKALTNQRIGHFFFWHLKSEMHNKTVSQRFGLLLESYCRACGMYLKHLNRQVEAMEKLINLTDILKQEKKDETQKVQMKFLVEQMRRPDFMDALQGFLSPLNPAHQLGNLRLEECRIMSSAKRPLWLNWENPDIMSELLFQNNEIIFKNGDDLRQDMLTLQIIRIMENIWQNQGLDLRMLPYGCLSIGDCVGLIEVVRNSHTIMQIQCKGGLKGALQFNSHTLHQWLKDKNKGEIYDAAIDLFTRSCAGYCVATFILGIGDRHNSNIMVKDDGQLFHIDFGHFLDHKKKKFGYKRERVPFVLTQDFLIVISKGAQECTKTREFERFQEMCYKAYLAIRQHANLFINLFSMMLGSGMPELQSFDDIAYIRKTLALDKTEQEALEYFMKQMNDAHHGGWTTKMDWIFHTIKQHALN
Sequence of Phosphatidylinositol 4,5-bisphosphate 3-kinase catalytic subunit alpha isoform (Homo sapiens), P42336 [C420R] (P42336 whole entry C420R, canonical isoform): as the sequence (P42336 whole entry, canonical isoform) above, with C420R counted along it
Sequence of Phosphatidylinositol 4,5-bisphosphate 3-kinase catalytic subunit alpha isoform (Homo sapiens), P42336 [H1047L] (P42336 whole entry H1047L, canonical isoform): as the sequence (P42336 whole entry, canonical isoform) above, with H1047L counted along it
Sequence of Dual specificity testis-specific protein kinase 1 (Homo sapiens) (Q15569 whole entry, looked up): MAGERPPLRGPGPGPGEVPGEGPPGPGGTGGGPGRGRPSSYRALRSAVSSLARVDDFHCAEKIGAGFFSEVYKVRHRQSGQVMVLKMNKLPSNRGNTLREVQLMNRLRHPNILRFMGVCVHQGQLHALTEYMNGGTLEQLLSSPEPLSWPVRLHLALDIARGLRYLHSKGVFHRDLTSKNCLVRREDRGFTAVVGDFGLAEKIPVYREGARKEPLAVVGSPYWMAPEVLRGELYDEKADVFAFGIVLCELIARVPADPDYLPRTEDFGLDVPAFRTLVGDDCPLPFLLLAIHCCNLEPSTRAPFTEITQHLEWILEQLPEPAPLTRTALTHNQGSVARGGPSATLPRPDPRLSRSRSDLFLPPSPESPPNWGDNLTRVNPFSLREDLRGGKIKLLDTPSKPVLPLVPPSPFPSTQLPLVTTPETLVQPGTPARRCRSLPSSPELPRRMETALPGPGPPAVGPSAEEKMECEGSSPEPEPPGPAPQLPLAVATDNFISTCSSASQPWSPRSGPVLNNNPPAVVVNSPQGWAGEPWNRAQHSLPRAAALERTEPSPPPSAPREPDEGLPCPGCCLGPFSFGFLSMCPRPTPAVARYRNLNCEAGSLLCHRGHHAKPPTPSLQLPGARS

`Cc1cc([C@@H](C)Nc2ccccc2C(=O)O)c2nc(N3CCOCC3)cc(=O)n2c1` [AZD-6482] yielded a % of control in [1] of 100%.
With `CN(C)C/C=C/C(=O)Nc1ccc(C(=O)N2CCCC(Nc3ncc(Cl)c(-c4c[nH]c5ccccc45)n3)C2)cc1` (configuration not stated), the % of control in experiment [2] was 6.2%.
Compound `COc1cc(Nc2nc(C)cc(-c3cnn4nc(OC)ccc34)n2)cc(C(F)(F)F)c1` registered a % of control in experiment [3] of 100%.
On to `Cc1cc(F)c(C(=O)Nc2cccc(-c3nncn3C(C)C)n2)cc1-n1cnc(C2CC2)c1`, for which the % of control in experiment [4] was determined as 98%.
For `C=CC(=O)Nc1cc(-n2c(=O)ccc3cnc4ccc(-c5ccc(NS(C)(=O)=O)cc5)cc4c32)ccc1C`, the % of control in experiment [5] (at 1 µM) stood at 100%; in experiment [5] (at 10 µM), 94%.
As for `N#Cc1cccc(-c2c[nH]c3ncnc(N4CCOCC4)c23)c1`, the % of control amounted to 87% in experiment [6]; 95% in [7]; 100% in [8]; 90% in experiment [9]; 100% in experiment [10]; 96% in experiment [11]. In addition, the % of control in experiment [12] was 88%; in experiment [13], 76%; in experiment [14], 97%; in experiment [15], 90%; in experiment [16], 100%.
